EC50, IC50 and outcome data for 71 compounds are collected here from PubChem BioAssay AID179 (DTP/NCI, 2004).

The test system of the assay is CEM cells HIV-1 protection, formazan growth assay. Description: NCI AIDS Antiviral Assay. The note with it: for pIC50: measured here: growth of uninfected CEM cells. The gist of the method:
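CEM (human) cells, HIV-1 infected vs uninfected, 5-point dosing, formazan growth read-out. Retest threshold 50% protection.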

pEC50, pIC50: −log10 of the molar value. Values joined by “and” are separate entries in the source; they are usually repeats but may differ in a detail not shown here. Equal values may be shown once. Active and inactive are the calls of the source.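 Rule for the calls: active = compounds giving half or more protection of infected cells from virus-caused growth loss, again on retest; inactive = the rest.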 Where a SMILES comes first, the peptide text is derived from it. The star is where a group is joined. Boc = CC(C)(C)OC(=O)*; OcHex = C1CCC(O*)CC1

As to `S=c1[nH]nc2scnn12`, the pEC50 was less than 3.70 and the pIC50 was less than 3.70.

For the compound `C[C@@H]1CC(O)C2(O)C13CC(OC(=O)[C@@H]3O)C1(O)C(=O)OCC12C` (some centres not stated), the pEC50 was less than 3.12 and the pIC50 is less than 3.12.

`COc1ccc(-c2nnc3c4ccccc4sn23)cc1`: the pEC50 was less than 4.59 and the pIC50 is 4.65.

On to `CC(=O)c1sc2c(c1O)c(=O)n(-c1ccccc1)c(=S)n2-c1ccccc1`, for which the pEC50 is less than 3.62 and the negative-log IC50 (pIC50) is 4.15.

With `O=C(O)CCCCCCCCCc1ccccc1`, the pEC50 is less than 3.70 and the pIC50 is 3.97.

In the case of `COc1cc(-c2ccc(NC(=O)SCCC(=O)O)cc2OC)ccc1NC(=O)SCCC(=O)O`, the outcome was inactive.

In the case of `O=C1CSC(C(N=Nc2ccc(Cl)cc2)c2nc3ccccc3[nH]2)=N1` (configuration not stated), the pEC50 is less than 5.71 and the pIC50 was less than 5.71.

For the compound `CC(C)CC(NC(=O)OC(C)(C)C)C(=O)NC(CCC(=O)OC1CCCCC1)C(N)=O` (stereo not drawn) (Boc-Leu-Glu(OcHex)-NH2; configuration not given here), the pEC50 was less than 3.70 and the negative-log IC50 (pIC50) was 3.90.

For `Cn1c(N)c(/C=C/C(=O)Oc2ccccc2)c(=O)n(C)c1=O`, the result was inactive.

Consider `CC(Cn1c2c(c3cc(O)ccc31)CCc1ccc(O)cc1-2)N(C)C` (configuration not stated), for which the pEC50 is less than 3.70 and the pIC50 was 4.92.

For the compound `O=C1CC(c2ccccc2)=NO1`, the pEC50 was less than 3.70 and the pIC50 is less than 3.70.

Take `COc1ccc(/C(=N\N)C2=NNC3(CCCCC3)NN2)cc1`: the result was inactive.

As to `O=C1OC(=O)c2c1nc1ccccc1c2-c1ccccc1`, the outcome was inactive.

In the case of `CCOC(=O)OC1(c2ccccc2)CCN(C)CC1`, the pEC50 is less than 3.70 and the pIC50 was less than 3.70.

Turning to `CN(Cc1nc2c(N)nc(N)nc2[nH]c1=O)c1ccc(C(=O)NC(CCC(=O)O)C(=O)O)cc1` (configuration not stated), the pEC50 was less than 3.70; the pIC50 was 4.97 and 5.09.

For `COc1cc2c(c3c1C(=O)[C@H](C)[C@@H](C)O3)C=CC(C)(C)O2`, the pEC50 was less than 3.70 and the pIC50 is 4.30.

Regarding `O=C(CCCCCCCCC(=O)N1C(=O)CC(=O)N(c2cccc(Cl)c2)C1=S)N1C(=O)CC(=O)N(c2cccc(Cl)c2)C1=S`, the pEC50 was less than 3.70 and the pIC50 is 4.07.

As to `CC1CCCC(C)[N+]1=C(Nc1cccc(Cl)c1)c1ccccc1` (configuration not stated), the pEC50 is less than 3.70 and the pIC50 was 3.98.

As for `O=c1n(-c2ccccc2)c(=O)n2n1C1C=CC2C23C=CC12CCCC3` (configuration not stated), the pEC50 was less than 4.00 and the negative-log IC50 (pIC50) was 4.11.

For `C[C@@H](NC(=O)c1ccccc1SC(=O)NCCCCl)C(N)=O`, the pEC50 is 5.47 and the pIC50 is 4.31.

With `[N-]=[N+]=C1C(=O)C2CC3CC(C2)CC1C3`, the pEC50 was less than 3.72 and the pIC50 is less than 3.72.

With `O=C(Nc1nc2c(ncn2C2OC(CO)C(O)C2O)c(=O)[nH]1)c1ccccc1` (configuration not stated), the pEC50 was less than 3.19 and the pIC50 was 3.60.

`N=S(=O)(c1ccccc1)c1ccccc1[N+](=O)[O-]` (configuration not stated): the pEC50 is 4.27 and the pIC50 is 4.04.

Consider `CCC1(c2ccccc2)NC(=O)N(C)C1=O` (configuration not stated), for which the pEC50 was less than 3.70 and the pIC50 is less than 3.70.

In the case of `Cc1ccc2c(c1)[nH]c(=S)n2/C=C(\c1ccccc1)S(=O)Cc1ccccc1` (configuration not stated), the pEC50 was less than 3.70 and the pIC50 is less than 3.70.

In the case of `Cc1ccc(N=Nc2c(N)nn3cc4c(nc23)-c2ccccc2CC4)cc1`, the pEC50 was less than 4.00 and the pIC50 is less than 4.00.

As for `CC1=C[C@H]2O[C@@H]3[C@H](O)[C@@H](O)[C@](C)(C2(COC(=O)CCl)CC1)[C@@]31CO1` (some centres not stated), the pEC50 was less than 5.16 and the pIC50 was 7.75.

As to `O=c1oc2c(ccc3nc(-c4ccccc4)sc32)c(N2CCOCC2)c1Cl`, the result was inactive.

For `O=C(CN1CCN(c2ccccc2)CC1)N1CCc2c([nH]c3ccccc23)C1c1cccnc1` (configuration not stated), the pEC50 was less than 5.80 and the pIC50 is less than 5.80.

As to `O=C1CCC2(CCCCC2)N1`, the pEC50 is less than 3.70 and the pIC50 was less than 3.70.

For `Cc1ccc(N/N=c2/ccc(=O)/c(=N\Nc3ccc(S(=O)(=O)O)cc3)c2=O)c(C)c1`, the pEC50 was less than 3.70 and the pIC50 is less than 3.70.

Turning to `O=C(CCc1cccc(O)c1)NCCCNC(=O)CCc1cccc(O)c1`, the pEC50 is less than 3.70 and the pIC50 was less than 3.70.

As for `NNC(=O)CC(=O)Nc1ccccc1Cl`, the pEC50 was less than 3.70 and the pIC50 was less than 3.70.

`Cc1cc(N)ccc1N=Nc1ccc(S(=O)(=O)CCOS(=O)(=O)O)cc1`: the pEC50 is less than 5.70 and the pIC50 is 6.04.

Turning to `CCCCCCN(CCCCCC)C1=CC(=O)C(=O)c2ccccc21`, the pEC50 is less than 4.02 and the negative logarithm of the IC50 (pIC50) was 4.78.

Regarding `CC1=NN(c2ccccc2)C(=O)C1N=Nc1ccc(S(=O)(=O)Nc2cc(C)nc(C)n2)cc1` (configuration not stated), the result was inactive.

In the case of `O=C(Cc1cc[n+]([O-])cc1)C(=O)Nc1cc(Cl)c(Cl)cc1Cl`, the pEC50 was less than 3.16 and the pIC50 was 3.20.

Regarding `NC(=O)c1nc(C2OC(CO)C(O)C2O)cs1` (configuration not stated), the pEC50 is less than 3.70 and the pIC50 is less than 3.70.

For the compound `Cc1ccc2oc(=O)c(-c3ccccc3)nc2c1`, the pEC50 was less than 4.66 and the negative-log IC50 (pIC50) was less than 4.66.

On to `CCOC(=O)/C(=C\c1ccc(OC)cc1)C(C)=O`, for which the pEC50 was less than 3.56 and the pIC50 is 3.93.

For the compound `O=C1Cc2c([nH]c3ccccc23)C2(CC3CCCCN13)OCCO2` (configuration not stated), the pEC50 was less than 3.70 and the pIC50 is 3.74.

With `Nc1nnnn1CCCl`, the pEC50 is less than 3.70 and the pIC50 was less than 3.70.

As for `CSc1nc(C)c2c(n1)SCC2`, the pEC50 was less than 3.70 and the negative-log IC50 (pIC50) was less than 3.70.

As to `COc1cc(C=C2C(=O)NC(=O)NC2=O)cc(OC)c1OC`, the pEC50 is less than 3.37 and the negative logarithm of the IC50 (pIC50) was 3.59.

Take `O=C(C=Nc1ccccc1C(=O)[O-])c1ccco1.O=C(C=Nc1ccccc1C(=O)[O-])c1ccco1.[Cu+2]`: the pEC50 is less than 5.72 and the pIC50 is less than 5.72.

Take `Cc1ccc(-n2cc(-c3ccc(Cl)cc3)c3c2N=CN2NC(c4ccco4)=NC32)cc1` (configuration not stated): the pEC50 was less than 4.00 and the negative logarithm of the IC50 (pIC50) was 4.13.

For `C=CCNC(=S)N/C=C(\C#N)C(N)=O`, the pEC50 was less than 3.70 and the pIC50 was less than 3.70.

Take `O=c1c(=O)c2c3c(ccc12)OCO3`: the outcome was inactive.

Consider `CCCN(CCC)C1CCc2c(ccc3cc[nH]c23)C1` (configuration not stated), for which the result was inactive.

In the case of `COc1ccc(C2C(C#N)=C(O)NC(O)=C2C#N)cc1OC`, the pEC50 was less than 3.92 and the pIC50 is less than 3.92.

Turning to `COc1ccc(N=C2C(=Nc3ccc(OC)cc3)N(c3ccccc3)C(=S)N2N=C=C2Sc3ccccc3N2C)cc1`, the pEC50 was less than 3.70 and the pIC50 is 4.59.

With `Cc1ccc(S(=O)(=O)CC2CCCn3c2c(C#N)c2ccccc23)cc1` (configuration not stated), the pEC50 is less than 3.70 and the pIC50 is less than 3.70.

With `CCN(CC)CCNc1ccc2ncn3c4c(OC)ccc(=O)c4c(O)c1c23`, the pEC50 was less than 4.30 and the pIC50 was 7.66.

On to `CCC(C)C(NC(=O)C(CCCCN)NC(=O)CNC(=O)C(NC(=O)C(NC(=O)C(NC(=O)C(Cc1ccccc1)NC(=O)C(C)NC(=O)C(CCCNC(=N)N)NC(=O)CNC(=O)C1CCCN1C(=O)CNC(=O)C(CCCNC(=N)N)NC(=O)C(CCC(N)=O)NC(=O)C(NC(=O)C(CCCNC(=N)N)NC(=O)C(NC(=O)C(COC1OC(CO)C(O)C(O)C1NC(C)=O)NC(=O)C(CCCCN)NC(=O)C(CCCNC(=N)N)NC(=O)C(NC(=O)C(CC(N)=O)NC(=O)C(N)CC(N)=O)C(C)O)C(C)CC)C(C)CC)C(C)C)C(C)OC1OC(CO)C(O)C(O)C1NC(C)=O)C(C)CC)C(=O)NCOC#N` (configuration not stated), for which the pEC50 was less than 4.56 and the pIC50 is less than 4.56.

With `COc1cc2c(cc1OC)[C@H]1C(=O)c3cc4c(cc3[C@H]1N(C)C2=O)OCO4`, the pEC50 is less than 4.43 and the pIC50 is 6.32.

Take `CSc1nc2c(c(N(C)C)n1)C(O)n1c(nc3ccccc31)S2` (configuration not stated): the pEC50 was less than 3.70 and the pIC50 is less than 3.70.

On to `COC(=O)/C=C(/C)n1nc2ccccc2n1`, for which the pEC50 was less than 3.70 and the pIC50 is less than 3.70.

Regarding `CC12CCCCC1=[N+]([O-])C(C)(C)N2O` (configuration not stated), the pEC50 is less than 3.70 and the pIC50 was less than 3.70.

Take `CCS1=C2C(=O)CC(C)(C)CC2=Nc2ccccc21` (configuration not stated): the pEC50 was less than 3.70 and the pIC50 is less than 3.70.

As for `O=C1/C(=C\c2cccc(Oc3ccccc3)c2)S(=O)(=O)C(c2ccccc2)N1c1ccc(Cl)cc1` (configuration not stated), the pEC50 was less than 4.70.

On to `CN(C)c1ccc(C2CC(=O)CC(c3ccc(N(C)C)cc3)C23C(=O)NC(=O)NC3=O)cc1` (configuration not stated), for which the pEC50 is less than 4.60 and the pIC50 was less than 4.60.

As to `OC1CCC(COC(c2ccccc2)(c2ccccc2)c2ccccc2)O1` (configuration not stated), the pEC50 was less than 3.70 and the pIC50 was 4.61.

As for `CCOC(=O)N1CCC2C(=C(C)C(C)C3=C2C(=O)c2ccccc2C3=O)C1` (configuration not stated), the pEC50 is less than 4.00 and the pIC50 is less than 4.00.

Turning to `O=S(=O)(c1ccccc1)S(=O)(=O)c1ccccc1`, the pEC50 was less than 4.32 and the negative logarithm of the IC50 (pIC50) was less than 4.32.

On to `Cc1ccc(NC2=CC(=O)C(=O)c3ccccc32)cc1`, for which the pEC50 is less than 4.56 and the pIC50 is 4.69.

Take `OC1CCOc2ccccc21` (configuration not stated): the pEC50 is less than 3.70 and the pIC50 was less than 3.70.

`Cc1ccc(-n2[nH]nc(C(N)=O)c2=O)cc1`: the pEC50 was less than 3.70 and the pIC50 was less than 3.70.

Regarding `COc1ccc(Nc2ccc3c4c(cccc24)C(=O)N(c2ccc(OC)cc2)C3=O)cc1`, the pEC50 was less than 3.70 and the pIC50 is 4.50.

For the compound `Nn1c(N=Nc2c(O)[nH]c3c(Cl)cc(Cl)cc23)n[nH]c1=S`, the pEC50 was less than 4.85 and the pIC50 was less than 4.85.

Take `O=C(OCCOCCOC(=O)c1c[nH]cc1-c1ccccc1)c1c[nH]cc1-c1ccccc1`: the result was inactive.

For the compound `COc1cccc(/C=N/[N-]C(N)=O)c1[O-].[Ni+2].[OH3+]`, the pEC50 was less than 3.78 and the pIC50 was 7.28.

Broadly, the pEC50 is the negative decadic logarithm of the EC50, by convention in mol/L. What is called pIC50 is the IC50 on a negative log10 scale, so that one unit is a factor of ten.
